{"source": "ChEMBL document CHEMBL3813627", "about": "“Preventive effect of a novel diosgenin derivative on arterial and venous thrombosis in vivo” (Bioorg Med Chem Lett, 2016)", "key": {"Rattus norvegicus [1]": {"tested_on": "Rattus norvegicus", "assay": "In vivo activation of coagulation factor9 in Sprague-Dawley rat at 64 mg/kg, ig bid for 7 days by automated coagulometry", "assay_type": "functional, organism-based"}, "Rattus norvegicus [2]": {"organism": "Rattus norvegicus", "assay": "Gastric toxicity in Sprague-Dawley rat assessed as angiogenesis treated for 49 days by hematoxylin and eosin staining based microscopic analysis", "assay_type": "organism-based", "conditions": "in vivo, 1176 h"}, "Mus musculus [3]": {"tested_on": "Mus musculus", "assay": "Toxicity in Balb/c mouse assessed as hemoglobin count at 92.1 mg/kg, ig bid for 7 days (reference value: 143 +/- 11.9 g/L)", "assay_type": "organism-based", "conditions": "in vivo, po, 168 h"}, "Mus musculus [4]": {"tested_on": "Mus musculus", "assay": "Toxicity in Balb/c mouse assessed as mortality at 92.1 to 575.5 mg/kg, po administered as single dose for 7 days", "assay_type": "organism-based", "conditions": "in vivo, 168 h"}, "Mus musculus [5]": {"tested_on": "Mus musculus", "assay": "Toxicity in Balb/c mouse assessed as tail bleeding time at 92.1 mg/kg, ig bid for 7 days (reference value: 186 +/- 12 sec)", "assay_type": "organism-based", "conditions": "in vivo, po"}, "Rattus norvegicus [6]": {"tested_on": "Rattus norvegicus", "assay": "Anti-thrombotic activity in Sprague-Dawley rat model of FeCl3-induced venous thrombosis assessed as venous thrombus weight at 64 mg/kg, ig bid for 7 days (reference value: 17.1 +/- 0.69 mg)", "assay_type": "functional"}, "Mus musculus [7]": {"tested_on": "Mus musculus", "assay": "Toxicity in Balb/c mouse assessed as white blood cell count at 92.1 mg/kg, ig bid for 7 days (reference value: 7.7 +/- 0.65 10^9/L)", "assay_type": "organism-based", "conditions": "in vivo, po, 168 h"}, "Mus musculus [8]": {"tested_on": "Mus musculus", "assay": "Toxicity in Balb/c mouse assessed as platelet count at 92.1 mg/kg, ig bid for 7 days (reference value: 802 +/- 74 10^9/L)", "assay_type": "organism-based", "conditions": "in vivo, po, 168 h"}, "Rattus norvegicus [9]": {"tested_on": "Rattus norvegicus", "assay": "In vivo activation of coagulation factor12 in Sprague-Dawley rat at 64 mg/kg, ig bid for 7 days by automated coagulometry", "assay_type": "functional, organism-based"}, "Rattus norvegicus [10]": {"tested_on": "Rattus norvegicus", "assay": "Antiplatelet activity in platelet-rich plasma isolated from Sprague-Dawley rat assessed as ADP-induced platelet aggregation at 64 mg/kg, ig bid for 7 days measured for 5 mins by light transmission aggregometry (reference value: 57.57 +/- 2.43 %)", "assay_type": "functional"}, "Mus musculus [11]": {"tested_on": "Mus musculus", "assay": "Toxicity in Balb/c mouse assessed as red blood cell count at 92.1 mg/kg, ig bid for 7 days (reference value: 7.55 +/- 0.59 10^12/L)", "assay_type": "organism-based", "conditions": "in vivo, po, 168 h"}, "Rattus norvegicus [12]": {"tested_on": "Rattus norvegicus", "assay": "Anti-thrombotic activity in Sprague-Dawley rat model of FeCl3-induced venous thrombosis assessed as venous thrombus length at 64 mg/kg, ig bid for 7 days by vernier caliper method (reference value: 10.66 +/- 0.81 mm)", "assay_type": "functional"}, "Rattus norvegicus [13]": {"tested_on": "Rattus norvegicus", "assay": "Anticoagulant activity in platelet-rich plasma isolated from Sprague-Dawley rat assessed as thrombin time at 64 mg/kg, ig bid for 7 days (reference value: 47.1 +/- 3.1 secs)", "assay_type": "functional"}, "Rattus norvegicus [14]": {"tested_on": "Rattus norvegicus", "assay": "Anticoagulant activity in platelet-rich plasma isolated from Sprague-Dawley rat assessed as prothrombin time at 64 mg/kg, ig bid for 7 days (reference value: 11.6 +/- 0.98 secs)", "assay_type": "functional"}, "Rattus norvegicus [15]": {"tested_on": "Rattus norvegicus", "assay": "Anti-thrombotic activity in Sprague-Dawley rat model of FeCl3-induced arterial thrombosis assessed as arterial thrombus weight at 64 mg/kg, ig bid for 7 days (reference value: 12.94 +/- 0.7 mg)", "assay_type": "functional"}, "Rattus norvegicus [16]": {"tested_on": "Rattus norvegicus", "assay": "In vivo activation of coagulation factor8 in Sprague-Dawley rat at 64 mg/kg, ig bid for 7 days by automated coagulometry", "assay_type": "functional, organism-based"}, "Mus musculus [17]": {"tested_on": "Mus musculus", "assay": "Hepatotoxicity in Balb/c mouse assessed as histopathological changes at 92.1 to 575.5 mg/kg, po administered as single dose for 7 days by hematoxylin and eosin staining based microscopic analysis", "assay_type": "toxicity, organism-based", "conditions": "in vivo, 168 h"}, "Rattus norvegicus [18]": {"tested_on": "Rattus norvegicus", "assay": "Anti-thrombotic activity in Sprague-Dawley rat model of FeCl3-induced arterial thrombosis assessed as arterial thrombus length at 64 mg/kg, ig bid for 7 days by vernier caliper method (reference value: 10.5 +/- 0.83 mm)", "assay_type": "functional"}, "Mus musculus [19]": {"tested_on": "Mus musculus", "assay": "Hepatotoxicity in Balb/c mouse assessed as changes in serum GPT level at 92.1 to 575.5 mg/kg, po administered as single dose for 7 days", "assay_type": "toxicity, organism-based", "conditions": "in vivo, 168 h"}, "Mus musculus [20]": {"tested_on": "Mus musculus", "assay": "Hepatotoxicity in Balb/c mouse assessed as changes in serum GOT level at 92.1 to 575.5 mg/kg, po administered as single dose for 7 days", "assay_type": "toxicity, organism-based", "conditions": "in vivo, 168 h"}, "Rattus norvegicus [21]": {"tested_on": "Rattus norvegicus", "assay": "Anticoagulant activity in platelet-rich plasma isolated from Sprague-Dawley rat assessed as activated partial thromboplastin time at 64 mg/kg, ig bid for 7 days (reference value: 17.6 +/- 0.92 secs)", "assay_type": "functional"}, "Rattus norvegicus [22]": {"organism": "Rattus norvegicus", "assay": "Gastric toxicity in Sprague-Dawley rat assessed as fibrotic changes treated for 49 days by hematoxylin and eosin staining based microscopic analysis", "assay_type": "organism-based", "conditions": "in vivo, 1176 h"}, "Rattus norvegicus [23]": {"organism": "Rattus norvegicus", "assay": "Gastric toxicity in Sprague-Dawley rat assessed as gastric mucosal damage score treated for 49 days by hematoxylin and eosin staining based microscopic analysis", "assay_type": "organism-based, Gastric mucosa", "conditions": "in vivo, 1176 h"}, "Rattus norvegicus [24]": {"tested_on": "Rattus norvegicus", "assay": "In vivo activation of coagulation factor11 in Sprague-Dawley rat at 64 mg/kg, ig bid for 7 days by automated coagulometry", "assay_type": "functional, organism-based"}, "Rattus norvegicus [25]": {"tested_on": "Rattus norvegicus", "assay": "Antiplatelet activity in platelet-rich plasma isolated from ig dosed Sprague-Dawley rat assessed as inhibition of ADP-induced platelet aggregation administered bid for 7 days measured for 5 mins by light transmission aggregometry", "assay_type": "functional, organism-based"}, "Rattus norvegicus [26]": {"tested_on": "Rattus norvegicus", "assay": "In vivo activation of coagulation factor10 in Sprague-Dawley rat at 64 mg/kg, ig bid for 7 days by automated coagulometry", "assay_type": "functional, organism-based"}, "Mus musculus [27]": {"tested_on": "Mus musculus", "assay": "Toxicity in Balb/c mouse assessed as hematocrit at 92.1 mg/kg, ig bid for 7 days (reference value: 40.5 +/- 3.5 %)", "assay_type": "organism-based", "conditions": "in vivo, po, 168 h"}}, "note": "The source made the active and inactive calls. The rule behind the calls is not given here."}
{"smiles": "CC(=O)Oc1ccccc1C(=O)O[C@H]1CC[C@@]2(C)C(=CC[C@H]3[C@@H]4C[C@@H]5O[C@]6(CC[C@@H](C)CO6)[C@@H](C)[C@@H]5[C@@]4(C)CC[C@@H]32)C1", "values": [{"measurement": "Activity", "setting": "Rattus norvegicus [1]", "result": "inactive"}, {"measurement": "Activity", "setting": "Rattus norvegicus [2]", "result": "Non-toxic"}, {"measurement": "Activity", "setting": "Mus musculus [3]", "result": 133, "unit": "g/L"}, {"measurement": "Activity", "setting": "Mus musculus [4]", "result": "Non-toxic"}, {"measurement": "Time", "setting": "Mus musculus [5]", "result": 676, "unit": "s"}, {"measurement": "Activity", "setting": "Rattus norvegicus [6]", "result": 9.12, "unit": "mg"}, {"measurement": "Activity", "setting": "Mus musculus [7]", "result": 7.82, "unit": "×10⁹ /L"}, {"measurement": "Activity", "setting": "Mus musculus [8]", "result": 790, "unit": "×10⁹ /L"}, {"measurement": "Activity", "setting": "Rattus norvegicus [9]", "result": "inactive"}, {"measurement": "Activity", "setting": "Rattus norvegicus [10]", "result": 29.42, "unit": "%"}, {"measurement": "Activity", "setting": "Mus musculus [11]", "result": 7.05, "unit": "×10¹² /L"}, {"measurement": "Activity", "setting": "Rattus norvegicus [12]", "result": 5.83, "unit": "mm"}, {"measurement": "TT", "setting": "Rattus norvegicus [13]", "result": 46.7, "unit": "s"}, {"measurement": "PT", "setting": "Rattus norvegicus [14]", "result": 11.4, "unit": "s"}, {"measurement": "Activity", "setting": "Rattus norvegicus [15]", "result": 6.34, "unit": "mg"}, {"measurement": "Activity", "setting": "Rattus norvegicus [16]", "result": "Active"}, {"measurement": "Activity", "setting": "Mus musculus [17]", "result": "Non-toxic"}, {"measurement": "Activity", "setting": "Rattus norvegicus [18]", "result": 5, "unit": "mm"}, {"measurement": "Activity", "setting": "Mus musculus [19]", "result": "Non-toxic"}, {"measurement": "Activity", "setting": "Mus musculus [20]", "result": "Non-toxic"}, {"measurement": "APTT", "setting": "Rattus norvegicus [21]", "result": 22.6, "unit": "s"}, {"measurement": "Activity", "setting": "Rattus norvegicus [22]", "result": "Non-toxic"}, {"measurement": "UI", "setting": "Rattus norvegicus [23]", "result": 0.66}, {"measurement": "Activity", "setting": "Rattus norvegicus [24]", "result": "inactive"}, {"measurement": "inhibition", "setting": "Rattus norvegicus [25]", "result": "Dose-dependent effect"}, {"measurement": "Activity", "setting": "Rattus norvegicus [26]", "result": "inactive"}, {"measurement": "Activity", "setting": "Mus musculus [27]", "result": 38.9, "unit": "%"}]}
